Converted amounts (≈) assume the structure as drawn. Where a SMILES comes first, the peptide text is derived from it.
How the values were obtained:
SARS-CoV-2 [1] = tested on: SARS-CoV-2
[2] = tested on: virus-host endosomal acidification; assay type: cell-based
SARS-CoV [3] = assay type: binding
rhinovirus [4] = tested on: rhinovirus
SARS-CoV-2 [5] = assay type: binding
MERS-CoV [6] = tested on: MERS-CoV
A(H1N1)pdm09 virus [7] = tested on: A(H1N1)pdm09 virus
[8] = tested on: endosomal acidification in MDCK cells; assay type: cell-based, canine
A(H1N1)pdm09 virus [9] = assay type: cell-based
H1N1 HA1 protein = H1N1 HA1 protein (Influenza A virus, UniProt C3W5S1)
A(H7N9) virus [10] = tested on: A(H7N9) virus
rhinovirus [11] = assay type: binding; conditions: peptide coated on ELISA plate, bound virus by RT-qPCR
MERS-CoV S protein = MERS-CoV S protein (Middle East respiratory syndrome-related coronavirus, UniProt K9N5Q8)
A(H1N1)pdm09 virus [12] = assay type: binding
SARS-CoV-2 [13] = tested on: SARS-CoV-2; remark: listed apart in the source
A(H7N9) virus [14] = assay type: binding
rhinovirus [15] = tested on: rhinovirus; remark: listed apart in the source
[16] = tested on: A(H1N1)pdm09 virus RNP release in MDCK cells
MERS-CoV [17] = assay type: binding
MERS-CoV [18] = tested on: MERS-CoV; remark: listed apart in the source
A(H7N9) virus [19] = tested on: A(H7N9) virus; remark: listed apart in the source
SARS-CoV [20] = tested on: SARS-CoV

Chain of H1N1 HA1 protein (C3W5S1 18-344 limits assumed): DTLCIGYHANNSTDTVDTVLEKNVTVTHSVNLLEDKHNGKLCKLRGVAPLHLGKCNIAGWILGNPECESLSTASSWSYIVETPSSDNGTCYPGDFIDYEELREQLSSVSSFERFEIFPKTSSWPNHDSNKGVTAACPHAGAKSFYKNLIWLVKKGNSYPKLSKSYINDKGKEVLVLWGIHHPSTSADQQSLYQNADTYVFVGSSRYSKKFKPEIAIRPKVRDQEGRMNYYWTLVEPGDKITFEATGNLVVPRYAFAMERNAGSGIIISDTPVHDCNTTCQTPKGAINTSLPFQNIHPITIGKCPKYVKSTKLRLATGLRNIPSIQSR
Chain of MERS-CoV S protein (K9N5Q8 18-1353 limits assumed): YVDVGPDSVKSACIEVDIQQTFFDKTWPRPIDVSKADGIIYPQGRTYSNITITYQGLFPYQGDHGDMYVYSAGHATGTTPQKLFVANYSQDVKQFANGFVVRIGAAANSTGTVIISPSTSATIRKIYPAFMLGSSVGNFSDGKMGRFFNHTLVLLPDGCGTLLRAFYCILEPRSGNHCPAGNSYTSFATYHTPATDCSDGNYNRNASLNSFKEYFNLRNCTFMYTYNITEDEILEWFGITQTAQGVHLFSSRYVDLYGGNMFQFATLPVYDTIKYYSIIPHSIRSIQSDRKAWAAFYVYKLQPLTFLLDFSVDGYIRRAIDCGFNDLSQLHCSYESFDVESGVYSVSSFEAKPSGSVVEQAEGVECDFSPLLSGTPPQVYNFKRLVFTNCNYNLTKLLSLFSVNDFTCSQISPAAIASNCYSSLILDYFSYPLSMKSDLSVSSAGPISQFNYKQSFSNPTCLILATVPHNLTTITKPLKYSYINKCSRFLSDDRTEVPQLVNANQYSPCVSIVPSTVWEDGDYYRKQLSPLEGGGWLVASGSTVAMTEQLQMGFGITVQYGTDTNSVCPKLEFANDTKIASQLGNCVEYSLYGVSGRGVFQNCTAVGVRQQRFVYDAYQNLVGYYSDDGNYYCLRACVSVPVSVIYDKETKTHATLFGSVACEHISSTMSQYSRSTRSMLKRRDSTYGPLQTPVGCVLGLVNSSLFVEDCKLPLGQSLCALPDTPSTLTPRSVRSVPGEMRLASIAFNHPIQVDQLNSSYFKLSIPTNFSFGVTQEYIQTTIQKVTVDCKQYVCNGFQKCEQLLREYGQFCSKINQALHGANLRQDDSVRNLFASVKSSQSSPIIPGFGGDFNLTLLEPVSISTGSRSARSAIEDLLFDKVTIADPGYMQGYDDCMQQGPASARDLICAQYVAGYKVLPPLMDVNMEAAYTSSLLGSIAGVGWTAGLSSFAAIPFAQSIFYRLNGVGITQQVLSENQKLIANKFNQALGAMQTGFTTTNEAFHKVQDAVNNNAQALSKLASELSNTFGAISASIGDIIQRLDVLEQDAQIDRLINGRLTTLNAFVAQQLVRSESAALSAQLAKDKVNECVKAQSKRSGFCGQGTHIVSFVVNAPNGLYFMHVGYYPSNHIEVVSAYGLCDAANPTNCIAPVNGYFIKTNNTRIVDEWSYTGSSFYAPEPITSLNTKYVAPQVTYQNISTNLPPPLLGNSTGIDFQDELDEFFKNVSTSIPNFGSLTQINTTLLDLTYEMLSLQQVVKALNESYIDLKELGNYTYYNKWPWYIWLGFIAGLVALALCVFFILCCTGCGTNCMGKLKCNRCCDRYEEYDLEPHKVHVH

Question: For `CC[C@H](C)[C@H](NC(=O)[C@H](C)NC(=O)CNC(=O)[C@@H](N)CC(N)=O)C(=O)N[C@@H](CS)C(=O)N[C@@H](Cc1c[nH]c2ccccc12)C(=O)NCC(=O)N1CCC[C@H]1C(=O)N[C@@H](CS)C(=O)N1CCC[C@H]1C(=O)N[C@H](C(=O)N[C@@H](C)C(=O)N[C@@H](Cc1ccccc1)C(=O)N[C@@H](CCCNC(=N)N)C(=O)N[C@@H](CCC(N)=O)C(=O)N[C@H](C(=O)NCC(=O)N[C@@H](CC(N)=O)C(=O)N[C@@H](CS)C(=O)NCC(=O)N[C@@H](Cc1c[nH]cn1)C(=O)N[C@@H](Cc1ccccc1)C(=O)N[C@@H](CCCCN)C(=O)N[C@H](C(=O)N[C@@H](CCCNC(=N)N)C(=O)N[C@@H](CS)C(=O)N[C@@H](CS)C(=O)N[C@@H](CCCCN)C(=O)N[C@H](C(=O)N[C@@H](CCCNC(=N)N)C(=O)O)[C@@H](C)CC)C(C)C)[C@@H](C)CC)[C@@H](C)O` [P9, reference compound], which “IC50 against parainfluenza virus 3” value (parainfluenza virus 3) is on record?
Answer: The value was greater than 25.0 µg/mL.

Question: What about the “IC50 against SARS-CoV-2” value (SARS-CoV-2 [1]) of the same molecule?
Answer: The value was 2.4 µg/mL (≈ 0.719 µM).

Question: How did the “inhibition of virus-host endosomal acidification” value [2] turn out when `CO/C1=C\C(C)=C\[C@@H](C)[C@@H](O)[C@@H](C)C/C(C)=C/C=C/[C@H](OC)[C@@H]([C@@H](C)[C@@H](O)[C@H](C)[C@@]2(O)C[C@@H](O)[C@H](C)[C@@H](C(C)C)O2)OC1=O` [bafilomycin A1, reference compound] was run?
Answer: Its value is “could efficiently inhibit the virus-host endosomal acidification”.

Question: With `CC[C@H](C)[C@H](NC(=O)[C@H](C)NC(=O)CNC(=O)[C@@H](N)CC(N)=O)C(=O)N[C@@H](CS)C(=O)N[C@@H](Cc1c[nH]c2ccccc12)C(=O)NCC(=O)N1CCC[C@H]1C(=O)N[C@@H](CS)C(=O)N1CCC[C@H]1C(=O)N[C@H](C(=O)N[C@@H](C)C(=O)N[C@@H](Cc1ccccc1)C(=O)N[C@@H](CCCNC(=N)N)C(=O)N[C@@H](CCC(N)=O)C(=O)N[C@H](C(=O)NCC(=O)N[C@@H](CC(N)=O)C(=O)N[C@@H](CS)C(=O)NCC(=O)N[C@@H](CCCNC(=N)N)C(=O)N[C@@H](Cc1ccccc1)C(=O)N[C@@H](CCCNC(=N)N)C(=O)N[C@H](C(=O)N[C@@H](CCCNC(=N)N)C(=O)N[C@@H](CS)C(=O)N[C@@H](CS)C(=O)N[C@@H](CCCNC(=N)N)C(=O)N[C@H](C(=O)N[C@@H](CCCNC(=N)N)C(=O)O)[C@@H](C)CC)C(C)C)[C@@H](C)CC)[C@@H](C)O` [P9R] (H-NGAICWGPCPTAFRQIGNCGRFRVRCCRIR-OH) as the molecule, how does the “binding to SARS-CoV” value (SARS-CoV [3]) read?
Answer: Its value is “could also bind”.

Question: And the “inhibition against rhinovirus compared with P9” value (rhinovirus [4])?
Answer: Its value is “significantly stronger inhibition”.

Question: And the “binding to SARS-CoV-2” value (SARS-CoV-2 [5])?
Answer: Its value is “could efficiently bind”.

Question: And the “inhibition against MERS-CoV compared with P9” value (MERS-CoV [6])?
Answer: The value was “significantly stronger inhibition”.

Question: And the “inhibition of viral replication (viral RNA copies in supernatants)” value (shortened to “inhibition of viral replication”) (A(H1N1)pdm09 virus [7])?
Answer: Its value is greater than 20 fold.

Question: And the “inhibition of virus-host endosomal acidification” value [2]?
Answer: The value was “could efficiently inhibit the virus-host endosomal acidification”.

Question: What about the “inhibition of endosomal acidification in live cells” value [8] of the same molecule?
Answer: Its value is “could more significantly inhibit endosomal acidification”.

Question: And the “inhibition against A(H1N1)pdm09 virus compared with P9” value (A(H1N1)pdm09 virus [9])?
Answer: Its value is “significantly stronger inhibition”.

Question: What about the “binding to viral protein H1N1 HA1” value (H1N1 HA1 protein) of the same molecule?
Answer: The value was “could also bind”.

Question: What about the “inhibition of viral replication” value (A(H7N9) virus [10]) of the same molecule?
Answer: The value was greater than 20 fold.

Question: What about the binding to rhinovirus (rhinovirus [11]) of the same molecule?
Answer: The binding to rhinovirus was “could also bind”.

Question: And the “binding to viral protein MERS-CoV S” value (MERS-CoV S protein)?
Answer: Its value is “could also bind”.

Question: What about the “binding to A(H1N1)pdm09 virus” value (A(H1N1)pdm09 virus [12]) of the same molecule?
Answer: Its value is “could efficiently bind”.

Question: And the “inhibition of viral replication” value (SARS-CoV-2 [13])?
Answer: Its value is 1000 fold.

Question: What about the “binding to A(H7N9) virus” value (A(H7N9) virus [14]) of the same molecule?
Answer: The value was “could also bind”.

Question: What about the “inhibition of viral replication” value (rhinovirus [15]) of the same molecule?
Answer: Its value is greater than 20 fold.

Question: What about the “IC50 against parainfluenza virus 3” value (parainfluenza virus 3) of the same molecule?
Answer: The value was greater than 25.0 µg/mL.

Question: And the “inhibition of viral RNP release into nuclei” value [16]?
Answer: The value was “could inhibit viral RNP release into nuclei”.

Question: What about the “binding to MERS-CoV” value (MERS-CoV [17]) of the same molecule?
Answer: The value was “could also bind”.

Question: What about the “inhibition of viral replication” value (MERS-CoV [18]) of the same molecule?
Answer: The value was 1000 fold.

Question: What about the “inhibition against A(H7N9) virus compared with P9” value (A(H7N9) virus [19]) of the same molecule?
Answer: The value was “significantly stronger inhibition”.

Question: What about the “inhibition of viral replication” value (SARS-CoV [20]) of the same molecule?
Answer: Its value is 1000 fold.

Question: What about the “IC50 against SARS-CoV-2” value (SARS-CoV-2 [1]) of the same molecule?
Answer: Its value is 0.9 µg/mL (≈ 0.264 µM).
